Test results as given in BindingDB's records for doi:10.1021/jm010399h (University of Tennessee Health Science Center, 2002).

Target: Integrase (Human immunodeficiency virus 1, UniProt Q7ZJM1)
Experiment: Inhibitory activity against HIV-1 Integrase (HIV-1-IN)

Sequence of Integrase (Q7ZJM1 whole entry): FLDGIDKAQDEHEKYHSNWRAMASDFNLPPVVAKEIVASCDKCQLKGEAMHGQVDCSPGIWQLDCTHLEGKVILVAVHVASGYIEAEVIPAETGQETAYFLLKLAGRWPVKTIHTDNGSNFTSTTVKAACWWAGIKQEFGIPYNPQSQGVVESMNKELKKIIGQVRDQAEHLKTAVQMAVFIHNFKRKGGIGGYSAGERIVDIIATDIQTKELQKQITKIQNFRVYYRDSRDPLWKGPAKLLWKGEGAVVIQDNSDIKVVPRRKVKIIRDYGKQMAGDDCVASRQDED

Row | Compound | IC50
1 | O=C(C=Cc1ccccc1)CC(=O)C=Cc1ccccc1 [5-Hydroxy-1,7-diphenylhepta-1,4,6-trien-3-one] | 100 µM
2 | COc1ccc(C=CC(=O)CC(=O)C=Cc2ccc(OC)c(OC)c2)cc1OC [(1E,4Z,6E)-1,7-bis(3,4-dimethoxyphenyl)-5-hydroxyhepta-1,4,6-trien-3-one] | 100 µM
